Measurements reported in US20250066388A1, “1,3,4,7-TETRAHYDRO-2H-PYRROLO[3',2':5,6]PYRIDO[2,3-B][1,4]OXAZEPINE BCL-2 INHIBITORS” (AbbVie Inc., priority 2022, published 2025).

Experiments:
Bcl-xL protein = Bcl-xL protein (Homo sapiens (Human), UniProt Q07817); assay: TR-FRET binding assay, Bcl-xL; conditions: F-Bak peptide probe
Method: (§1) Determination of the utility of compounds having Formula (I) or Formula (II) as binders to and inhibitors of anti-apoptotic Bcl-2 proteins was performed using the Time Resolved-Fluorescence Resonance Energy Transfer (TR-FRET) Assay. Tb-anti-GST antibody was purchased from Invitrogen (Catalog No. PV4216).
A human Bcl-xL encoding sequence was cloned into a pET41A vector. The protein was expressed with E. coli. BL21(DE3)-T1R strain in OETB autoinduction medium at 30° C. for 25 hours. The cell pellets were resuspended in lysis buffer (50 mM Tris, 140 mM NaCl, 1 mM DTT, 10% Glycerol, 0.1% Triton X-100, pH 7.5) and lysed with Microfluidizer. The Bcl-xL protein in clarified cell-lysate was purified with GST affinity chromatography. The eluate was dialyzed in the storage buffer (1×PBS, 10% Glycerol, 2 mM DTT, 1 mM Sodium Azide, pH 7.4) and stored at −80° C.
(§2) […] of a protein (Bcl-2 or Bcl-xL)/probe/antibody mixture pre-equilibrated for one hour in assay buffer was added to each well at final concentrations listed in Table 6 below.
(§3) The samples were then mixed on a shaker for 1 minute and equilibrated for an additional 3 hours at room temperature. For each assay plate, a probe/antibody and protein/antibody/probe mixture were included as a negative and a positive control, respectively. Fluorescence was measured on the Envision (Perkin Elmer) using a 340/35 nm excitation filter and 520/525 (F-Bak) and 495/510 nm (Tb-labeled anti-GST antibody) emission filters. Inhibition constants (Ki) were determined using Wang's equation (Wang FEBS Lett. 1995, 360, 111-114). The TR-FRET assay can be performed in the presence of varying concentrations of human serum (HS) to determine apparent half maximal inhibitory concentration (IC50) after HS protein binding.
(§4) Inhibition constants were determined using Wang's equation (Wang FEBS Lett. 1995, 360:111-4).

Bcl-2 protein = Bcl-2 protein (Homo sapiens (Human), UniProt P10415); assay: TR-FRET binding assay, Bcl-2; conditions: F-Bak peptide probe, GST-Bcl-2
Method: as §1
A Bcl-2 human encoding sequence was cloned into a pET41A vector (Novagen). The protein was expressed with E. coli. BL21(DE3)-T1R strain in OETB autoinduction medium at 30° C. for 25 hours. The cell pellets were resuspended in lysis buffer (50 mM Tris, 140 mM NaCl, 1 mM DTT, 10% Glycerol, 2 mM MgCl2, pH 7.3) and lysed with Microfluidizer. The Bcl-2 protein in clarified cell-lysate was purified with affinity chromatography (GST and Ni-NTA). The eluate was loaded onto a Superdex 75 column and further purified with a Q Sepharose column. The protein was purified on a phenyl hydrophobic interaction column and dialyzed in the storage buffer (50 mM Tris, 50 mM NaCl, 2 mM DTT, pH 7.5) and stored at −80° C.
as §2, §3, §4

Molt-4 cells = assay: Cell viability counter screen (CellTiter-Glo) in Molt-4 cells; assay type: cell-based; conditions: 24 hours, 10% Human Serum
Method: The acute lymphoblastic leukemia (ALL) human cell line RS4;11 (ATCC, Manassas VA) was used as the primary human cell line to assess the cellular activity of compound of the present Examples in vitro and their efficacy in vivo. […] The acute lymphoblastic leukemia cell line Molt-4, which is derived from immature T-lymphoid cells (T-ALL), was used as a counter screen assay.
3000 Cells (0.1×10^6/mL) were seeded in each well of 384-well plate and were treated for 24 hours in a humidified chamber with 5% CO2. Cell viability was determined by CellTiter-Glo as described by the manufacturer's instructions (Promega Corporation, Madison, WI, USA).

Bcl-2 protein, sequence (P10415 other isoform, or with tags, fused parts or gaps): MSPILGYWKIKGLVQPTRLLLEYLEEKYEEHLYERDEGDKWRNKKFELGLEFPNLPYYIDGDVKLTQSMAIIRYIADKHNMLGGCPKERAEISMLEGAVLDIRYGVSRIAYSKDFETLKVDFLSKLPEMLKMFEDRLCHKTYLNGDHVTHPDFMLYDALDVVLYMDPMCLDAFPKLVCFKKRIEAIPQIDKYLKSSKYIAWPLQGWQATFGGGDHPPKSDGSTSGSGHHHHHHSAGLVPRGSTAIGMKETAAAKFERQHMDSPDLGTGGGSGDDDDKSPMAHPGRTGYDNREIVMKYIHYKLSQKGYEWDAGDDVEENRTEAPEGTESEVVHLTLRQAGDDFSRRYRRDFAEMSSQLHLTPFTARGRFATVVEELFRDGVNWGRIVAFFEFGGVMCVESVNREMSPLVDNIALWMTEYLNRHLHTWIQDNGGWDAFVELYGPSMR
Bcl-xL protein, sequence (Q07817 other isoform, or with tags, fused parts or gaps): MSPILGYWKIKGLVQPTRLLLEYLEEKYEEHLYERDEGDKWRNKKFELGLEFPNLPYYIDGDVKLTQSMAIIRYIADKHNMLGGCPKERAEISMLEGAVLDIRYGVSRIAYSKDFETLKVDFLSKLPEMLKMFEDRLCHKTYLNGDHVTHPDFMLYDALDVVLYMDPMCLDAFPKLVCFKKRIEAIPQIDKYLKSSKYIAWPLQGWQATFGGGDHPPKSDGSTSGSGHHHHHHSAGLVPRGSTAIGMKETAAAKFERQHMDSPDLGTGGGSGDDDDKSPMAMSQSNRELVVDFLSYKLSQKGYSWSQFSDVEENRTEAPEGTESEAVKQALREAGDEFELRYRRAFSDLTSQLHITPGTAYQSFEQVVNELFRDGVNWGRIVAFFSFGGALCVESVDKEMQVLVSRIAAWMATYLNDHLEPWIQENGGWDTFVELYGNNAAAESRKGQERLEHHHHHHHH

Row | SMILES | Ki (Bcl-xL protein) | Ki (Bcl-2 protein) | EC50 (Molt-4 cells)
1 | C[C@H]1CCC(CNc2ccc(S(=O)(=O)NC(=O)c3ccc(N4CCN5CC6=C(c7ccc(Cl)cc7)CC(C)(C)C[C@H]6OCCCOCC5C4)cc3N3CCCOc4nc5[nH]ccc5cc43)cc2[N+](=O)[O-])OC1 (stereo partly drawn) [Example 23, 4-((4aS,10aR)-14-(4-chlorophenyl)-12,12-dimethyl-1,2,4a,5,8,9,10a,11,13,15-decahydro-7H,12H-benzo[f]pyrazino[2,1-c][1,8]dioxa[4]azacycloundecin-3(4H)-yl)-2-(3,4-dihydro-2H-pyrrolo[3′,2′:5,6]pyrido[2,3-b][1,4]oxazepin-1(7H)-yl)-N-((4-((((2R,5S)-5-methyltetrahydro-2H-pyran-2-yl)methyl)amino)-3-nitrophenyl)sulfonyl)benzamide] | 29.7 nM | 0.634 nM | > 10000 nM
2 | COC1(CNc2ccc(S(=O)(=O)NC(=O)c3ccc(N4CCN5CC6=C(c7ccc(Cl)cc7)CC(C)(C)C[C@H]6OCCCOC[C@@H]5C4)cc3N3CCCOc4nc5[nH]ccc5cc43)cc2[N+](=O)[O-])CCOCC1 [Example 26, 4-((4aS,10aR)-14-(4-chlorophenyl)-12,12-dimethyl-1,2,4a,5,8,9,10a,11,13,15-decahydro-7H,12H-benzo[f]pyrazino[2,1-c][1,8]dioxa[4]azacycloundecin-3(4H)-yl)-2-(3,4-dihydro-2H-pyrrolo[3′,2′:5,6]pyrido[2,3-b][1,4]oxazepin-1(7H)-yl)-N-((4-(((4-methoxytetrahydro-2H-pyran-4-yl)methyl)amino)-3-nitrophenyl)sulfonyl)benzamide] | 40.3 nM | 2.09 nM | > 10000 nM
3 | CC1(C)CC(c2ccc(Cl)cc2)=C2CN3CCN(c4ccc(C(=O)NS(=O)(=O)c5ccc(NC[C@@H]6CC[C@@H](O)CO6)c([N+](=O)[O-])c5)c(N5CCCOc6nc7[nH]ccc7cc65)c4)C[C@H]3COCCCO[C@@H]2C1 [Example 27, 4-((4aS,10aR)-14-(4-chlorophenyl)-12,12-dimethyl-1,2,4a,5,8,9,10a,11,13,15-decahydro-7H,12H-benzo[f]pyrazino[2,1-c][1,8]dioxa[4]azacycloundecin-3(4H)-yl)-2-(3,4-dihydro-2H-pyrrolo[3′,2′:5,6]pyrido[2,3-b][1,4]oxazepin-1(7H)-yl)-N-((4-((((2S,5R)-5-hydroxytetrahydro-2H-pyran-2-yl)methyl)amino)-3-nitrophenyl)sulfonyl)benzamide] | 7.41 nM | 1.72 nM | 
4 | COC1CO[C@H](CNc2ccc(S(=O)(=O)NC(=O)c3ccc(N4CCN5CC6=C(c7ccc(Cl)cc7)CC(C)(C)C[C@H]6OCCCOC[C@@H]5C4)cc3N3CCCOc4nc5[nH]ccc5cc43)cc2[N+](=O)[O-])C1 (stereo partly drawn) [Example 29, 4-((4aS,10aR)-14-(4-chlorophenyl)-12,12-dimethyl-1,2,4a,5,8,9,10a,11,13,15-decahydro-7H,12H-benzo[f]pyrazino[2,1-c][1,8]dioxa[4]azacycloundecin-3(4H)-yl)-2-(3,4-dihydro-2H-pyrrolo[3′,2′:5,6]pyrido[2,3-b][1,4]oxazepin-1(7H)-yl)-N-((4-((((2S)-4-methoxytetrahydrofuran-2-yl)methyl)amino)-3-nitrophenyl)sulfonyl)benzamide] | 22.5 nM | 2.59 nM | 
5 | CC1(C)CC(c2ccc(Cl)cc2)=C2CN3CCN(c4ccc(C(=O)NS(=O)(=O)c5ccc(NC[C@H]6CC[C@](C)(O)CC6)c([N+](=O)[O-])c5)c(N5CCCOc6nc7[nH]ccc7cc65)c4)C[C@H]3COCCCO[C@@H]2C1 [Example 32, 4-((4aS,10aR)-14-(4-chlorophenyl)-12,12-dimethyl-1,2,4a,5,8,9,10a,11,13,15-decahydro-7H,12H-benzo[f]pyrazino[2,1-c][1,8]dioxa[4]azacycloundecin-3(4H)-yl)-2-(3,4-dihydro-2H-pyrrolo[3′,2′:5,6]pyrido[2,3-b][1,4]oxazepin-1(7H)-yl)-N-((4-((((1r,4r)-4-hydroxy-4-methylcyclohexyl)methyl)amino)-3-nitrophenyl)sulfonyl)benzamide] | 15.8 nM | 0.397 nM | 
6 | CO[C@H]1CC[C@H](CNc2ccc(S(=O)(=O)NC(=O)c3ccc(N4CCN5CC6=C(c7ccc(Cl)cc7)CC(C)(C)C[C@H]6OCCCOC[C@@H]5C4)cc3N3CCCOc4nc5[nH]ccc5cc43)cc2Cl)OC1 [Example 34, N-((3-chloro-4-((((2R,5S)-5-methoxytetrahydro-2H-pyran-2-yl)methyl)amino)phenyl)sulfonyl)-4-((4aS,10aR)-14-(4-chlorophenyl)-12,12-dimethyl-1,2,4a,5,8,9,10a,11,13,15-decahydro-7H,12H-benzo[f]pyrazino[2,1-c][1,8]dioxa[4]azacycloundecin-3(4H)-yl)-2-(3,4-dihydro-2H-pyrrolo[3′,2′:5,6]pyrido[2,3-b][1,4]oxazepin-1(7H)-yl)benzamide] | 446 nM | 0.667 nM | > 10000 nM
7 | COCCO[C@H]1CC[C@H](CNc2ccc(S(=O)(=O)NC(=O)c3ccc(N4CCN5CC6=C(c7ccc(Cl)cc7)CC(C)(C)C[C@H]6OCCCOC[C@@H]5C4)cc3N3CCCOc4nc5[nH]ccc5cc43)cc2[N+](=O)[O-])OC1 [Example 35, 4-((4aS,10aR)-14-(4-chlorophenyl)-12,12-dimethyl-1,2,4a,5,8,9,10a,11,13,15-decahydro-7H,12H-benzo[f]pyrazino[2,1-c][1,8]dioxa[4]azacycloundecin-3(4H)-yl)-2-(3,4-dihydro-2H-pyrrolo[3′,2′:5,6]pyrido[2,3-b][1,4]oxazepin-1(7H)-yl)-N-((4-((((2R,5S)-5-(2-methoxyethoxy)tetrahydro-2H-pyran-2-yl)methyl)amino)-3-nitrophenyl)sulfonyl)benzamide] | 23.1 nM | 0.0891 nM | 
8 | CC1(C)CC(c2ccc(Cl)cc2)=C2CN3CCN(c4ccc(C(=O)NS(=O)(=O)c5cnc(OC[C@H]6CC[C@](C)(O)CC6)c(Cl)c5)c(N5CCCOc6nc7[nH]ccc7cc65)c4)C[C@H]3COCCCO[C@@H]2C1 [Example 42, N-((5-chloro-6-(((1r,4r)-4-hydroxy-4-methylcyclohexyl)methoxy)pyridin-3-yl)sulfonyl)-4-((4aS,10aR)-14-(4-chlorophenyl)-12,12-dimethyl-1,2,4a,5,8,9,10a,11,13,15-decahydro-7H,12H-benzo[f]pyrazino[2,1-c][1,8]dioxa[4]azacycloundecin-3(4H)-yl)-2-(3,4-dihydro-2H-pyrrolo[3′,2′:5,6]pyrido[2,3-b][1,4]oxazepin-1(7H)-yl)benzamide] |  |  | > 10000 nM
9 | CC1(C)CC(c2ccc(Cl)cc2)=C2CN3CCN(c4ccc(C(=O)NS(=O)(=O)c5ccc(OC[C@H]6CC[C@](C)(O)CC6)c(Cl)c5)c(N5CCCOc6nc7[nH]ccc7cc65)c4)C[C@H]3COCCCO[C@@H]2C1 [Example 43, N-((3-chloro-4-(((1r,4r)-4-hydroxy-4-methylcyclohexyl)methoxy)phenyl)sulfonyl)-4-((4aS,10aR)-14-(4-chlorophenyl)-12,12-dimethyl-1,2,4a,5,8,9,10a,11,13,15-decahydro-7H,12H-benzo[f]pyrazino[2,1-c][1,8]dioxa[4]azacycloundecin-3(4H)-yl)-2-(3,4-dihydro-2H-pyrrolo[3′,2′:5,6]pyrido[2,3-b][1,4]oxazepin-1(7H)-yl)benzamide] |  |  | > 10000 nM
10 | CC1(C)CC(c2ccc(Cl)cc2)=C2CN3CCN(c4ccc(C(=O)NS(=O)(=O)c5cnc(OC[C@H]6CC[C@@](C)(O)CC6)c(Cl)c5)c(N5CCCOc6nc7[nH]ccc7cc65)c4)C[C@H]3COCCCO[C@@H]2C1 [Example 50, N-((5-chloro-6-(((1s,4s)-4-hydroxy-4-methylcyclohexyl)methoxy)pyridin-3-yl)sulfonyl)-4-((4aS,10aR)-14-(4-chlorophenyl)-12,12-dimethyl-1,2,4a,5,8,9,10a,11,13,15-decahydro-7H,12H-benzo[f]pyrazino[2,1-c][1,8]dioxa[4]azacycloundecin-3(4H)-yl)-2-(3,4-dihydro-2H-pyrrolo[3′,2′:5,6]pyrido[2,3-b][1,4]oxazepin-1(7H)-yl)benzamide] |  |  | > 10000 nM
